# Reference: patent US20250154134A1, “COMPOUND AS FAK INHIBITOR AND USE THEREOF” (WIGEN BIOMEDICINE TECHNOLOGY (SHANGHAI) CO., LTD., priority 2022, published 2025)
# Tests used:
# [1] = biological target: FAK recombinant protein (Homo sapiens (Human), UniProt Q05397); experiment: Inhibitory activity against FAK enzyme (HTRF, TK substrate); type: biochemical
# Procedure: A compound serially diluted with DMSO was mixed with a FAK recombinant protein. After the mixture was left to stand at room temperature for 10 min, a biotin-labeled TK substrate (TK) and ATP were added. […] The inhibition percentage and IC50 of the compound were calculated compared to the DMSO control group.
# [2] = system: PC3 cells; experiment: PC3 cell proliferation, 2D activity assay (Cell Titer-Lumi, 72 h); type: cell-based, human
# Procedure: (§1) 2D activity assay: 1200 PC3 cells were seeded in a 96-well plate. After overnight adherence culture, A compound serially diluted was added. […] The growth of the cells was evaluated, and the IC50 of the compound inhibiting cell growth was calculated. 3D activity assay: PC3 cells were seeded in a 96-well plate at 1200 cells/well, and 3D culture was performed. 14 days after a compound serially diluted was added, the growth of the cells was measured. The inhibition percentage and IC50 of the compound were calculated compared to the DMSO control group.
# [3] = system: PC3 cells; experiment: PC3 cell proliferation, 3D activity assay (3D culture, 14 days); type: cell-based, human; conditions: read-out: 3D inhibitory activity against PC3 cells IC50
# Procedure: as §1
# [4] = Homo sapiens, PC-3, read-out: 2D inhibitory activity against PC3 cells IC50
# [5] = read-out: 2D inhibitory activity against PC3 cells IC50
# Sequence of FAK recombinant protein (Q05397 whole entry): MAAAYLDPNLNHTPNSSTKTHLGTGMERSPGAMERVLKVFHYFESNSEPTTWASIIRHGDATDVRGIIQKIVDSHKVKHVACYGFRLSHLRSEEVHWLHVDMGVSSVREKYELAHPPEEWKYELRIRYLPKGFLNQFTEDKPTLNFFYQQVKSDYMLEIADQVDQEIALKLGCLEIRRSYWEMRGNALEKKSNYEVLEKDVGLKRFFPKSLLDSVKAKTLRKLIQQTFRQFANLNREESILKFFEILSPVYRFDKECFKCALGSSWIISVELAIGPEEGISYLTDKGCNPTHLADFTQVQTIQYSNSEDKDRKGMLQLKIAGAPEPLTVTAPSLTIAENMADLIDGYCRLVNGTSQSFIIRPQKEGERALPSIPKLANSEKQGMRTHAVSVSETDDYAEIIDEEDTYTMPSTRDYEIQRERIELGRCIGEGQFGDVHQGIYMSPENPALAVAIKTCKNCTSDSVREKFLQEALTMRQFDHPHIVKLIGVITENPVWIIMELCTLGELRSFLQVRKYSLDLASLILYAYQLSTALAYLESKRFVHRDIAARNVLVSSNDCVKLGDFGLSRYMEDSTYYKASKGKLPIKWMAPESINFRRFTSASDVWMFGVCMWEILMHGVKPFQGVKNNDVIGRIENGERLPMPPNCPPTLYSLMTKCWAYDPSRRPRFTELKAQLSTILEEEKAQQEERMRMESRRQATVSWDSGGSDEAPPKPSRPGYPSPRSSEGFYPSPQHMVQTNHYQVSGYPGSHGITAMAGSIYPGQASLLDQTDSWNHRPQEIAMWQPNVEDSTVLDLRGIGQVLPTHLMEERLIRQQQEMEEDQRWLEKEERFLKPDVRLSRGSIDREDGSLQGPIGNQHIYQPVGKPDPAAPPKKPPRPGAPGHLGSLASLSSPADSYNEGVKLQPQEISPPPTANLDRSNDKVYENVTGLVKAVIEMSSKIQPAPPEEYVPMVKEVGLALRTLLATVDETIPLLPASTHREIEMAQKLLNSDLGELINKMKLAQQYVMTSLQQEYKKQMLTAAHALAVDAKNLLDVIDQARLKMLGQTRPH
Structure (SMILES),IC50 [1] [nM],"IC50 [2, 4] [nM]","IC50 ([3]; Homo sapiens, PC-3, 336 h) [nM]","IC50 [2, 5] [nM]",IC50 [3] [nM]
COc1cc(C2CCN(C)CC2)c(F)cc1Nc1ncc(C#N)c(Oc2cccc3c2C(=O)N(C)C32CC2)n1 [Compound 199],< 20,> 2000,5 to 50,,
COc1cc(C(=O)NC2CCN(C)CC2)c(F)cc1Nc1ncc(Cl)c(Oc2cccc3c2C(=O)N(C)C32CCCC2)n1 [Compound 209],,> 2000,> 50,,
CCc1cc(C(=O)NC2CCN(C)CC2)c(F)cc1Nc1ncc(C(F)(F)F)c(Oc2cccc3c2C(=O)N(C)C32CC2)n1 [Compound 51],< 20,> 2000,5 to 50,,
C=Cc1cc(C(=O)NC2CCN(C)CC2)ccc1Nc1ncc(C(F)(F)F)c(Oc2cccc3c2C(=O)N(C)C32CC2)n1 [Compound 49],< 20,> 2000,5 to 50,,
COc1cc2c(cc1Nc1ncc(C(F)(F)F)c(Oc3cccc4c3C(=O)N(C)C43CC3)n1)CN(C)C(=O)C2 [Compound 90],< 20,> 2000,5 to 50,,
"COc1cc(N2CCN(CC(=O)N(C)C)CC2)ccc1Nc1ncc(C(F)(F)F)c(Oc2cccc3c2C(=O)N(C)C32CC2)n1 [Compound 75, 2-(4-(3-methoxy-4-((4-((2′-methyl-3′-oxospiro[cyclopropane-1,1′-isoindolin]-4′-yl)oxy)-5-(trifluoromethyl)pyrimidin-2-yl)amino)phenyl)piperazin-1-yl)-N,N-dimethylacetamide]",< 20,> 2000,< 5,,
COc1cc(N2CCC(N3CC4CC(C3)N4C)CC2)ccc1Nc1ncc(Cl)c(Oc2cccc3c2C(=O)N(C)C32CC2)n1 [Compound 163],< 20,> 2000,5 to 50,,
COc1cc(C(=O)N2CCC3(CCN(C)C3)C2)ccc1Nc1ncc(C(F)(F)F)c(Oc2cccc3c2C(=O)N(C)C32CC2)n1 (stereo not shown) [Compound 58],,,,> 2000,5 to 50
COc1cc(C(=O)NC2CCN(C)CC2)c(F)cc1Nc1ncc(C#N)c(Oc2cccc3c2C(=O)N(C)C32CC2)n1 [Compound 193],< 20,> 2000,< 5,,
"COc1cc(N2CCN(C)CC2)ccc1Nc1ncc(C2CC2)c(Oc2cccc3c2C(=O)N(C)C32CC2)n1 [Compound 130, 4′-((5-cyclopropyl-2-((2-methoxy-4-(4-methylpiperazin-1-yl)phenyl)amino)pyrimidin-4-yl)oxy)-2′-methylspiro[cyclopropane-1,1′-isoindolin]-3′-one]",< 20,> 2000,5 to 50,,
Cc1cn(C2CCN(C)CC2)nc1Nc1ncc(C(F)(F)F)c(Oc2cccc3c2C(=O)N(C)C32CC2)n1 [Compound 98],< 20,> 2000,5 to 50,,
COc1cc(C(=O)NC2CCC23CCN(C)CC3)ccc1Nc1ncc(C(F)(F)F)c(Cc2cccc3c2C(=O)N(C)C32CC2)n1 (stereo not shown) [Compound 108],< 20,> 2000,5 to 50,,
COc1cc(N2CC3(CN(C)C3)C2)ccc1Nc1ncc(Cl)c(Oc2cccc3c2C(=O)N(C)C32CC2)n1 [Compound 146],< 20,> 2000,5 to 50,,
CN1CCn2nc(Nc3ncc(C(F)(F)F)c(Oc4cccc5c4C(=O)N(C)C54CC4)n3)cc2C1 [Compound 96],< 20,> 2000,< 5,,
COc1cc(C(=O)NC2CCN3CCN=C3C2)ccc1Nc1ncc(C(F)(F)F)c(Oc2cccc3c2C(=O)N(C)C32CC2)n1 (stereo not shown) [Compound 30],< 20,> 2000,5 to 50,,
COc1cc(N2CC3(CN(C)C3)C2)ccc1Nc1ncc(Br)c(Oc2cccc3c2C(=O)N(C)C32CC2)n1 [Compound 188],< 20,> 2000,5 to 50,,
"COc1cc(C(=O)NC2CCNCC2)ccc1Nc1ncc(C(F)(F)F)c(Oc2cccc3c2C(=O)N(C)C32CC2)n1 [Compound 35, 3-Methoxy-4-((4-((2′-methyl-3′-oxospiro[cyclopropane-1,1′-isoindolin]-4′-yl)oxy)-5-(trifluoromethyl)pyrimidin-2-yl)amino)-N-(piperidin-4-yl)benzamide]",,> 2000,< 5,,
COc1cc(N2CC3CCN(C)C3C2)ccc1Nc1ncc(Cl)c(Oc2cccc3c2C(=O)N(C)C32CC2)n1 (stereo not shown) [Compound 171],,,,> 2000,5 to 50
COc1cc(C(=O)NC2(C)CCN(C)CC2)ccc1Nc1ncc(Cl)c(Oc2cccc3c2C(=O)N(C)C32CC2)n1 [Compound 118],,> 2000,5 to 50,,

# The next lines start with the values.
IC50 [1] [nM],"IC50 [2, 4] [nM]","IC50 ([3]; Homo sapiens, PC-3, 336 h) [nM]","IC50 [2, 5] [nM]",IC50 [3] [nM],Structure (SMILES)
< 20,> 2000,5 to 50,,,"COc1cc(N2CC3(CCN(C)CC3)C2)ccc1Nc1ncc(C2CC2)c(Oc2cccc3c2C(=O)N(C)C32CC2)n1 [Compound 131, 4′-((5-cyclopropyl-2-((2-methoxy-4-(7-methyl-2,7-diazaspiro[3.5]nonan-2-yl)phenyl)amino)pyrimidin-4-yl)oxy)-2′-methylspiro[cyclopropane-1,1′-isoindolin]-3′-one]"
< 20,> 2000,5 to 50,,,COc1cc(C(=O)NC2CCC3(CCN(C)C3)C2)ccc1Nc1ncc(C(F)(F)F)c(Cc2cccc3c2C(=O)N(C)C32CC2)n1 (stereo not shown) [Compound 104]
< 20,> 2000,< 5,,,COc1cc(C(=O)NC2CC3(CCN(C)CC3)C2)ccc1Nc1ncc(C#N)c(Oc2cccc3c2C(=O)N(C)C32CC2)n1 [Compound 195]
< 20,> 2000,5 to 50,,,"COc1cc(C(=O)NC2CCN(C)CC2)c(F)cc1Nc1ncc(C(F)(F)F)c(Cc2cccc3c2C(=O)N(C)C32CC2)n1 [Compound 100, 2-fluoro-5-methoxy-4-((4-((2′-methyl-3′-oxospiro[cyclopropane-1,1′-isoindolin]-4′-yl)methyl)-5-(trifluoromethyl)pyrimidin-2-yl)amino)-N-(1-methylpiperidin-4-yl)benzamide]"
< 20,> 2000,5 to 50,,,COc1cc(C2CCN(C)CC2)ccc1Nc1ncc(Br)c(Oc2cccc3c2C(=O)N(C)C32CC2)n1 [Compound 179]
< 20,> 2000,< 5,,,COc1cc(C(=O)NC2CC3(CCN(C)CC3)C2)ccc1Nc1ncc(C(F)(F)F)c(Oc2cccc3c2C(=O)N(C)C32CC2)n1 [Compound 9]
< 20,> 2000,> 50,,,COc1cc(C(=O)N2CCC3(CCN(C)CC3)CC2)ccc1Nc1ncc(C(F)(F)F)c(Oc2cccc3c2C(=O)N(C)C32CC2)n1 [Compound 56]
< 20,,,> 2000,< 5,"COc1cc(N2CC3(CCN(C)CC3)C2)ccc1Nc1ncc(Cl)c(Oc2cccc3c2C(=O)N(C)C32CCC2)n1 [Compound 203, 94′-((5-chloro-2-((2-methoxy-4-(7-methyl-2,7-diazaspiro[3.5]nonan-2-yl)phenyl)amino)pyrimidin-4-yl)oxy)-2′-methylspiro[cyclobutane-1,1′-isoindolin]-3′-one]"
< 20,> 2000,< 5,,,COc1cc(C(=O)NC2CCN(C)CC2)c(F)cc1Nc1ncc(Cl)c(Oc2cccc3c2C(=O)N(C)C32CCC2)n1 [Compound 205]
